Reference: ChEMBL document CHEMBL4265953, “Exploration of novel pyrrolo[2,1-f][1,2,4]triazine derivatives with improved anticancer efficacy as dual inhibitors of c-Met/VEGFR-2” (Eur J Med Chem, 2018)
Values after ≈ are worked out from the molar mass of the structure shown.

How the values were obtained:
[1] = octanol/water, 0.5 h
[2] = physchem
[3] = physchem; conditions: n-octanol/water
[4] = Half life in Sprague-Dawley rat at 10 mg/kg, po by LC-MS analysis; assay type: ADME, organism-based; conditions: in vivo
[5] = AUC in Sprague-Dawley rat at 2 mg/kg, iv by LC-MS analysis; assay type: ADME, organism-based; conditions: in vivo
[6] = Tmax in Sprague-Dawley rat at 10 mg/kg, po by LC-MS analysis; assay type: ADME, organism-based; conditions: in vivo
[7] = Cmax in Sprague-Dawley rat at 10 mg/kg, po by LC-MS analysis; assay type: ADME, organism-based; set-up: dose 10 mg/kg, route oral; conditions: in vivo
[8] = AUC in Sprague-Dawley rat at 10 mg/kg, po by LC-MS analysis; assay type: ADME, organism-based; conditions: in vivo
[9] = Oral bioavailability in Sprague-Dawley rat at 10 mg/kg by LC-MS analysis; assay type: ADME, organism-based; conditions: in vivo
[10] = Clearance in Sprague-Dawley rat at 2 mg/kg, iv by LC-MS analysis; assay type: ADME, organism-based; conditions: in vivo
[11] = Half life in Sprague-Dawley rat at 2 mg/kg, iv by LC-MS analysis; assay type: ADME, organism-based; conditions: in vivo
[12] = Cmax in Sprague-Dawley rat at 2 mg/kg, iv by LC-MS analysis; assay type: ADME, organism-based; set-up: dose 2 mg/kg, route intravenous; conditions: in vivo

Row | SMILES | logP [1] | solubility at 1 h [2] [µg/mL] | logP at 0.5 h [3] | half-life [4] [h] | AUC [5] [ng·h/mL] | Tmax [6] [h] | Cmax [7] [ng/mL] | AUC [8] [ng·h/mL] | bioavailability [9] [%] | clearance [10] [mL/min/kg] | half-life [11] [h] | Cmax [12] [ng/mL]
1 | COc1cc2nccc(Oc3ccc(NC(=O)C4(C(=O)Nc5ccc(F)cc5)CC4)cc3)c2cc1OC.O=C(O)C[C@H](O)C(=O)O [CABOZANTINIB S-MALATE] | 1.89 | 52 |  |  |  |  |  |  |  |  |  | 
2 | Cc1c(OCC(O)CN2CCN(C)CC2)cn2ncnc(Oc3ccc(NC(=O)C4(C(=O)Nc5ccc(F)cc5)CC4)cc3F)c12 (stereo not given) |  | 20.5 (≈ 32.2 µM) | 2.98 | 5 | 239 | 5 | 129 | 1170 | 98.1 | 139 | 2.16 | 72.1
3 | COc1cc2nccc(Oc3ccc(NC(=O)C4(C(=O)Nc5ccc(F)cc5)CC4)cc3)c2cc1OC [CABOZANTINIB] |  | < 0.1 | 3.89 |  |  |  |  |  |  |  |  | 
